Columns and labels:
Type in all cases: cell-based
CLR/RAMP1 receptor [1] = target: T1, CLR/RAMP1 receptor (Homo sapiens, UniProt O60894+Q16602); assay: CLR/RAMP1 cAMP assay, antagonist mode (CGRP-stimulated); conditions: for receptor selectivity of antagonists, in words: CLR/RAMP1 versus CLR/RAMP2; for CLR/RAMP1 Max Activity % of positive control (antagonist): antagonist mode
Procedure: A cell line carrying the recombinant CLR/RAMP1, CLR/RAMP2, or a CLR/RAMP3 receptor was employed in the assay. […] The CLR/RAMP1 CAMP, CLR/RAMP2 arrestin, and CLR/RAMP3 CAMP assays (DiscoveRx, Fremont, Calif.) were used.
For the analysis of antagonistic activity, synthetic analogs were pre-incubated with the cells before adding the reference ligand at its EC80. […] For the determination of antagonistic activity, cells were pre-incubated with sample followed by agonist challenge at the EC80 concentration. […] After appropriate compound incubation, assay signal was generated through incubation with 20 μL cAMP XS+ED/CL lysis cocktail for one hour followed by incubation with 20 μL cAMP XS+EA reagent for three hours at room temperature. Microplates were read following signal generation with a PerkinElmer Envision™ instrument for chemiluminescent signal detection.
For the antagonistic activity assay, percentage inhibition is calculated using the following formula: % Inhibition=100%×(1−(mean RLU of test sample−mean RLU of vehicle control)/(mean RLU of EC80 control−mean RLU of vehicle control)).

CLR/RAMP2 receptor [2] = target: T2, CLR/RAMP2 receptor (Homo sapiens, UniProt O60895+Q16602); assay: CLR/RAMP2 arrestin assay, antagonist mode (ADM-stimulated)
Procedure: A cell line carrying the recombinant CLR/RAMP1, CLR/RAMP2, or a CLR/RAMP3 receptor was employed in the assay. Peptide agonist activities were tested, in duplicate, at 10 different concentrations, starting with 1.0 μM and serially diluted 3-fold, in DMSO. […] The CLR/RAMP1 CAMP, CLR/RAMP2 arrestin, and CLR/RAMP3 CAMP assays (DiscoveRx, Fremont, Calif.) were used.
For the analysis of antagonistic activity, synthetic analogs were pre-incubated with the cells before adding the reference ligand at its EC80. […] For antagonistic activity determination, cells were pre-incubated with antagonist followed by agonist challenge at the EC80 concentration. […] Then, 5 μL of 6× EC80 agonist in assay buffer was added to the cells and incubated at 37 C or room temperature for 90 or 180 minutes.
The microplates were read following signal generation with a PerkinElmer Envision™ instrument for chemiluminescent signal detection.
% Activity=100%×(mean RLU of test sample−mean RLU of vehicle control)/(mean MAX control ligand−mean RLU of vehicle control). For antagonistic activity assays, percentage inhibition was calculated using the following formula: % Inhibition=100%×(1−(mean RLU of test sample−mean RLU of vehicle control)/(mean RLU of EC80 control−mean RLU of vehicle control)).

CLR/RAMP1 receptor [3] = target: T1, CLR/RAMP1 receptor; assay: CLR/RAMP1 cAMP receptor-activation assay (agonist mode); conditions: agonist mode; positive control β-CGRP;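 note: Dose–response over 10 threefold dilutions from 1.0 µM, run in duplicate, luminescent cAMP detection (RLU), activity scaled between vehicle control (0%) and maximal control (100%)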
Procedure: (§1) Using a receptor activation assay, the dose-dependent stimulatory response of peptide agonists on a CLR/RAMP1 receptor, a CLR/RAMP2, or a CLR/RAMP3 receptor complex was determined. A cell line carrying the recombinant CLR/RAMP1, CLR/RAMP2, or a CLR/RAMP3 receptor was employed in the assay. Peptide agonist activities were tested, in duplicate, at 10 different concentrations, starting with 1.0 μM and serially diluted 3-fold, in DMSO. […] The CLR/RAMP1 CAMP, CLR/RAMP2 arrestin, and CLR/RAMP3 CAMP assays (DiscoveRx, Fremont, Calif.) were used.
(§2) The pharmacology of superagonistic activity of synthetic analogs was studied in cells that stably express CLR/RAMP1 (1321N1 cells), CLR/RAMP2 (CHO-K1 cells), or CLR/RAMP3 (CHO-K1 cells) receptors.
(§3) For the analysis of Gs-coupled CAMP production, cAMP Hunter cell lines were expanded from freezer stocks, and cells were seeded in a total volume of 20 μL into white walled, 384-well microplates and incubated at 37 C for the appropriate time prior to testing. The CAMP modulation was determined using the DiscoverX HitHunter CAMP XS+ assay. For agonistic activity determination, cells were incubated with sample to induce response. Media was aspirated from cells and replaced with 15 μL 2:1 HBSS/10 mM Hepes: CAMP XS+Ab reagent. […] For Gs-coupled agonistic assays, percentage activity is calculated using the following formula: % Activity=100%×(mean RLU of test sample−mean RLU of vehicle control)/(mean RLU of MAX control−mean RLU of vehicle control).

CLR/RAMP2 receptor [4] = target: T2, CLR/RAMP2 receptor; assay: CLR/RAMP2 arrestin receptor-activation assay (agonist mode); conditions: for CLR/RAMP2 Max Activity % of positive control: agonist mode, positive control ADM; for receptor selectivity of agonists, in words: CLR/RAMP2 versus CLR/RAMP1;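 for all read-outs here: agonist dose-response in recombinant cell lines stably expressing each receptor complex, duplicate wells over 10 threefold dilutions from a top concentration of 1.0 µM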
Procedure: as §1, §2
For the Arrestin assays, PathHunter cell lines (Discoverx Inc.) were expanded from freezer stocks, and seeded in a total volume of 20 μL into white walled, 384-well microplates and incubated at 37 C for the appropriate time prior to testing. For agonist determination, cells were incubated with sample to induce response. […] The microplates were read following signal generation with a PerkinElmer Envision™ instrument for chemiluminescent signal detection.
The compound activity was analyzed using a CBIS data analysis suite (ChemInnovation, CA). For agonist mode assays, percentage activity was calculated using the following formula:
% Activity=100%×(mean RLU of test sample−mean RLU of vehicle control)/(mean MAX control ligand−mean RLU of vehicle control).

CLR/RAMP3 receptor = CLR/RAMP3 receptor (Homo sapiens, UniProt O60896+Q16602); assay: CLR/RAMP3 cAMP receptor-activation assay (agonist mode); conditions: for CLR/RAMP3 Max Activity % of positive control: agonist mode
Sequence of CLR/RAMP3 receptor (Q16602 23-461): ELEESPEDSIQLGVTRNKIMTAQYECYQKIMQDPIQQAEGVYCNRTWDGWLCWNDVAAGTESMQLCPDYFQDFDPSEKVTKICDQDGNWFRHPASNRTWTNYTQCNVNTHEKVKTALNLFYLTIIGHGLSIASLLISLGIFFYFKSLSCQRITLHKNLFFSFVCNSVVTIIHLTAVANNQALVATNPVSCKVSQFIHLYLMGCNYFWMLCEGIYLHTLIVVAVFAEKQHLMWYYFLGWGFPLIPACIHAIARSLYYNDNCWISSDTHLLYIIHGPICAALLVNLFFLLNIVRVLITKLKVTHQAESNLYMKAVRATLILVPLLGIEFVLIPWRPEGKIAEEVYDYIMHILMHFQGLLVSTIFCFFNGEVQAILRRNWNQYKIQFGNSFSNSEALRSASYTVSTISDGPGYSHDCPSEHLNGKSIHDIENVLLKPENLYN
Sequence of CLR/RAMP3 receptor (O60896 24-148): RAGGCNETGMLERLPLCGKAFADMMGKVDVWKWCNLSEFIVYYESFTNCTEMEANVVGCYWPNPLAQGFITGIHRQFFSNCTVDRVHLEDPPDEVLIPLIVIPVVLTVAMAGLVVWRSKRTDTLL
Procedure: as §1, §2, §3

T1 sequence (Q16602 23-461): as the sequence (Q16602 23-461) above
T1 sequence (O60894 27-148): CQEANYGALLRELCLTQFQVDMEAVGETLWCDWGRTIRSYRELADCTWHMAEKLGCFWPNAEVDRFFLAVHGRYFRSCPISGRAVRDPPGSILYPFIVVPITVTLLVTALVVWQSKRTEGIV
T2 sequence (Q16602 23-461): as the sequence (Q16602 23-461) above
T2 sequence (O60895 43-175): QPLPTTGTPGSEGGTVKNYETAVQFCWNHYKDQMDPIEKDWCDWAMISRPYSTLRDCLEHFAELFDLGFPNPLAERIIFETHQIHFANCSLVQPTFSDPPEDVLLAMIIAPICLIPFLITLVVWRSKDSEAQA

Substance | CLR/RAMP1 Max Activity % of positive control (antagonist) (CLR/RAMP1 receptor [1]) | CLR/RAMP2 Max Activity % of positive control (antagonist) (CLR/RAMP2 receptor [2]) | CLR/RAMP1 Max Activity % of positive control (CLR/RAMP1 receptor [3]) | CLR/RAMP2 Max Activity % of positive control (CLR/RAMP2 receptor [4]) | also measured
Ace-KRPPGFSPFR-miniPEG-K(Pal)VQKLAHQIYQFTDKDVAPRSKISPQGY-NH2 [SEQ ID NO: 149] | 101 % of positive control | 99 % of positive control |  |  | receptor selectivity of antagonists, in words (CLR/RAMP1 receptor [1]): pan-specific
Ace-NFVPTNVGPFAF-NH2 [SEQ ID NO: 144] | 98 % of positive control | 0 % of positive control |  |  | antagonistic activity toward CLR/RAMP1 and/or CLR/RAMP2, in words (CLR/RAMP1 receptor [1]): minimal antagonizing activities
Ace-PEG3-K([19-carboxy-nonadecanoyl]-isoGlu-Peg3-Peg3)GCRFGTCTVQKLAHQIYQFTDKDKDNVAPRSKISPQGY-NH2 [SEQ ID NO: 157] |  |  | 100 % of positive control | 95 % of positive control | 
Ace-PEG12-PEG12-K([19-carboxy-nonadecanoyl]-isoGlu-PEG3)GCRFGTCTVQKLAHQIYQFTDKDKDNVAPRSKISPQGY-NH2 [SEQ ID NO: 150] |  |  | 94 % of positive control | 60 % of positive control | 
Ace-RPKPQQFFGLM-miniPEG-K(PAL)GCRFGTCTVQKLAHQIYQFTDKDSAPVDPSSPHSY-NH2 [SEQ ID NO: 147] |  |  | 109 % of positive control | 90 % of positive control | 
Ace-Y(D-Ala)GF(D-Leu)-miniPEG-K(Pal)VQKLSAPVDPSSPHSY-NH2 [SEQ ID NO: 145] | 99 % of positive control | 100 % of positive control |  |  | receptor selectivity of antagonists, in words (CLR/RAMP1 receptor [1]): CLR/RAMP1-selective
Ace-YGGFLRRIRPKLK-miniPEG-K(Pal)VQKLSAPVDPSSPHSY-NH2 [SEQ ID NO: 146] | 102 % of positive control | 98 % of positive control |  |  | receptor selectivity of antagonists, in words (CLR/RAMP1 receptor [1]): CLR/RAMP1-selective
Ace-YNWNSFGLRF-miniPEG-K(PAL)VQKLAHQIYQFTDKDVAPRSKISPQGY-NH2 [SEQ ID NO: 148] | 100 % of positive control | 97 % of positive control |  |  | receptor selectivity of antagonists, in words (CLR/RAMP1 receptor [1]): pan-specific
AcePEG3--K([17-carboxy-heptadecanoyl]-isoGlu-Peg3-Peg3)GCRFGTCTVQKLAHQIYQFTDKDKDNVAPRSKISPQGY-NH2 [SEQ ID NO: 158] |  |  | 95 % of positive control | 113 % of positive control | 
PEG20,000-K[PAL]VQKLAHQIYQFTDKDSAPVDPSSPHSY-NH2 [SEQ ID NO: 190] | 104 % of positive control | 51 % of positive control |  |  | 
PEG2000-K[PAL]VQKLAHQIYQFTDKDSAPVDPSSPHSY-NH2 [SEQ ID NO: 191] | 98 % of positive control | 101 % of positive control |  |  | 
PEG5000-K[PAL]VQKLAHQIYQFTDKDSAPVDPSSPHSY-NH2 [SEQ ID NO: 192] | 101 % of positive control | 104 % of positive control |  |  | 
Pal-KVQKLNFVPTNVGSKAF-NH2 [SEQ ID NO: 142] | 100 % of positive control | 80 % of positive control |  |  | 
Pal-KVQNLSAPVDPSSPHSY-NH2 [SEQ ID NO: 141] | 43 % of positive control | 14 % of positive control |  |  | antagonistic activity toward CLR/RAMP1 and/or CLR/RAMP2, in words (CLR/RAMP1 receptor [1]): minimal antagonizing activities
Pyr(glu)-LYENKPRRPYIL-miniPEG-K(PAL)GCRFGTCTVQKLAHQIYQFTDKDVAPRSKISPQGY-NH2 [SEQ ID NO: 223] |  |  | 102 % of positive control | 70 % of positive control | 
miniPEG-K(PAL)CRFGTCTVQKLAHQIYQFTDKDKDNSAPVDPSSPHSY-NH2 [SEQ ID NO: 43] |  |  | 39 % of positive control | 30 % of positive control | 

Substance | CLR/RAMP1 Max Activity % of positive control (antagonist) (CLR/RAMP1 receptor [1]) | CLR/RAMP2 Max Activity % of positive control (antagonist) (CLR/RAMP2 receptor [2]) | CLR/RAMP1 Max Activity % of positive control (CLR/RAMP1 receptor [3]) | CLR/RAMP2 Max Activity % of positive control (CLR/RAMP2 receptor [4]) | also measured
miniPEG-K(PAL)GCRFGTC(D-Thr)VQKLAHQIYQFTDKDVAPRSKISPQGY-NH2 [SEQ ID NO: 210] |  |  | 77 % of positive control | 47 % of positive control | receptor selectivity of agonists, in words (CLR/RAMP2 receptor [4]): CLR/RAMP2-selective
miniPEG-K(PAL)GCRFGTCT(D-Val)QKLAHQIYQFTDKDVAPRSKISPQGY-NH2 [SEQ ID NO: 211] |  |  | 91 % of positive control | 22 % of positive control | receptor selectivity of agonists, in words (CLR/RAMP2 receptor [4]): CLR/RAMP2-selective
miniPEG-K(PAL)GCRFGTCTVQKLAHQIYQFTDKDKDNSAPVDPSSPHSY-NH2 [SEQ ID NO: 28] |  |  | 54 % of positive control | 143 % of positive control | EC50 (CLR/RAMP3 receptor; CHO-K1 cells stably expressing CLR/RAMP3, cAMP assay): 0.06 nM; CLR/RAMP3 Max Activity % of positive control (CLR/RAMP3 receptor): 117 % of positive control; EC50 (CLR/RAMP2 receptor [4]; CHO-K1 cells stably expressing CLR/RAMP2, arrestin assay): 0.5 nM
miniPEG-K(PAL)GCRFGTCTVQKLAHQIYQFTDKDKDNVAPRSKISPQGY-NH2 [SEQ ID NO: 69] |  |  | 70 % of positive control | 147 % of positive control | CLR/RAMP3 Max Activity % of positive control (CLR/RAMP3 receptor): 127 % of positive control
miniPEG-K(PAL)GCRFGTCTVQKLAHQIYQFTDKDKDNVAPRSKSSPHSY-NH2 [SEQ ID NO: 61] |  |  | 70 % of positive control | 92 % of positive control | 
miniPEG-K(PAL)GCRFGTCTVQKLAHQIYQFTDKDKDNVAPVDPSSPHSY-NH2 [SEQ ID NO: 50] |  |  | 65 % of positive control | 87 % of positive control | 
miniPEG-K(PAL)GCRFGTCTVQKLAHQIYQFTDKDKDNVDPSSPHSY-NH2 [SEQ ID NO: 94] |  |  | 67 % of positive control | 82 % of positive control | receptor selectivity of agonists, in words (CLR/RAMP2 receptor [4]): CLR/RAMP2-selective
miniPEG-K(PAL)GCRFGTCTVQKLAHQIYQFTDKDKDSAPVDPSSPHSY-NH2 [SEQ ID NO: 46] |  |  | 60 % of positive control | 104 % of positive control | 
miniPEG-K(PAL)GCRFGTCTVQKLAHQIYQFTDKDKQDSAPVDPSSPHSY-NH2 [SEQ ID NO: 51] |  |  | 65 % of positive control | 107 % of positive control | 
miniPEG-K(PAL)GCRFGTCTVQKLAHQIYQFTDKDKSAPVDPSSPHSY-NH2 [SEQ ID NO: 47] |  |  | 85 % of positive control | 64 % of positive control | 
miniPEG-K(PAL)GCRFGTCTVQKLAHQIYQFTDKDVAPR(D-Ser)KISPQGY-NH2 [SEQ ID NO: 213] |  |  | 115 % of positive control | 107 % of positive control | 
miniPEG-K(PAL)GCRFGTCTVQKLAHQIYQFTDKDVAPRSKISP(D-Gln)GY-NH2 [SEQ ID NO: 214] |  |  | 112 % of positive control | 99 % of positive control | receptor selectivity of agonists, in words (CLR/RAMP2 receptor [4]): CLR/RAMP2-selective
miniPEG-K(PAL)TKKTLRTGCRFGTCTVQKLAHQIYQFTDKDKDNVAPRSKISPQGY-NH2 [SEQ ID NO: 70] |  |  | 69 % of positive control | 68 % of positive control | 
miniPEG-K(PAL)VQKLSAPVDPSSPHSY-NH2 [SEQ ID NO: 140] | 100 % of positive control | 90 % of positive control |  |  | receptor selectivity of antagonists, in words (CLR/RAMP1 receptor [1]): CLR/RAMP1-selective
miniPEG-TK(Pal)KTLRTGCRFGTCTVQKLAHQIYQFTDKDKDNVAPVDPSSPHSY-NH2 [SEQ ID NO: 42] |  |  | 56 % of positive control | 76 % of positive control | 
olcegepant [BIBN4096, reference compound] | 105 % of positive control | 0 % of positive control | 105 % of positive control | 0 % of positive control | 
